In US10273243B2, “4-phenylpiperidines, their preparation and use” (The Trustees of Columbia University in the City of New York, priority 2013, dated 2019):
Where a name gives a salt, the structure may show the parent alone.

| melting point | SMILES |
| --- | --- |
| 107 to 110 °C | O=C(c1n[nH]c2c1CN(C1COC1)CC2)N1CCC(c2ccccc2C(F)(F)F)CC1 [Example 46, (5-(Oxetan-3-yl)-4,5,6,7-tetrahydro-1H-pyrazolo[4,3-c]pyridin-3-yl)(4-(2-(trifluoromethyl)phenyl)piperidin-1-yl)methanone] |
| 249 to 251 °C | O=C(c1nc2ncccc2[nH]1)N1CCC(c2ccccc2C(F)(F)F)CC1 [Example 71, (1H-Imidazo[4,5-b]pyridin-2-yl)(4-(2-(trifluoromethyl)phenyl)piperidin-1-yl)methanone] |
| 141 to 143 °C | Cc1nnsc1C(=O)N1CCC(c2ccccc2C(F)(F)F)CC1 [Example 84, (4-Methyl-1,2,3-thiadiazol-5-yl)(4-(2-(trifluoromethyl)phenyl)piperidin-1-yl)methanone] |
| 100 to 102 °C | CC1(C(=O)N2CCC(c3ccccc3C(F)(F)F)CC2)COC1 [Example 103, (3-Methyloxetan-3-yl)(4-(2-(trifluoromethyl)phenyl)piperidin-1-yl)methanone] |
| 254 to 258 °C | Cc1cnc2cc(C(=O)N3CCC(c4ccccc4C(F)(F)F)CC3)[nH]c2c1 [Example 70, (6-Methyl-1H-pyrrolo[3,2-b]pyridin-2-yl)(4-(2-(trifluoromethyl)phenyl)piperidin-1-yl)methanone] |
| 58 to 64 °C | Cn1nc(C(=O)N2CCC(c3ccccc3C(F)(F)F)CC2)c2c1CC(C)(C)OC2 [Example 2, (4-(2-(Trifluoromethyl)phenyl)piperidin-1-yl)(1,6,6-trimethyl-1,4,6,7-tetrahydropyrano[4,3-c]pyrazol-3-yl)methanone] |
| 127 to 130 °C | O=C(CC(F)(F)F)N1CCc2[nH]nc(C(=O)N3CCC(c4ccccc4C(F)(F)F)CC3)c2C1 [Example 47, 3,3,3-Trifluoro-1-(3-(4-(2-(trifluoromethyl)phenyl)piperidine-1-carbonyl)-6,7-dihydro-1H-pyrazolo[4,3-c]pyridin-5(4H)-yl)propan-1-one] |
| 44 to 46 °C | Cn1nc(C(=O)N2CCC(c3ccccc3C(F)(F)F)CC2)c2c1CCOC2 [Example 1, (1-Methyl-1,4,6,7-tetrahydropyrano[4,3-c]pyrazol-3-yl)(4-(2-(trifluoromethyl)phenyl)piperidin-1-yl)methanone] |
| 159 to 163 °C | Cn1c(C(=O)N2CCC(c3ccccc3C(F)(F)F)CC2)cc2ncccc21 [Example 74, (1-Methyl-1H-pyrrolo[3,2-b]pyridin-2-yl)(4-(2-(trifluoromethyl)phenyl)piperidin-1-yl)methanone] |
| 159 to 162 °C | O=C(c1ccnnc1)N1CCC(c2ccccc2C(F)(F)F)CC1 [Example 80, Pyridazin-4-yl(4-(2-(trifluoromethyl)phenyl)piperidin-1-yl)methanone] |
| 242 to 245 °C | CS(=O)(=O)N1CCc2c(C(=O)N3CCC(c4ccccc4C(F)(F)F)CC3)n[nH]c2C1 [Example 18, (6-(Methylsulfonyl)-4,5,6,7-tetrahydro-1H-pyrazolo[3,4-c]pyridin-3-yl)(4-(2-(trifluoromethyl)phenyl)piperidin-1-yl)methanone] |
| 235 to 239 °C (dec.) | O=C(c1cnn[nH]1)N1CCC(c2ccccc2C(F)(F)F)CC1 [Example 88, (1H-1,2,3-Triazol-5-yl)(4-(2-(trifluoromethyl)phenyl)piperidin-1-yl)methanone] |
| 126 to 128 °C | CC(C)(C)C(=O)N1CCc2[nH]nc(C(=O)N3CCC(c4ccccc4C(F)(F)F)CC3)c2C1 [Example 40, 2,2-Dimethyl-1-(3-(4-(2-(trifluoromethyl)phenyl)piperidine-1-carbonyl)-6,7-dihydro-1H-pyrazolo[4,3-c]pyridin-5(4H)-yl)propan-1-one] |
| 159 to 162 °C | CCN1CCc2[nH]nc(C(=O)N3CCC(c4ccccc4C(F)(F)F)CC3)c2C1 [Example 43, (5-Ethyl-4,5,6,7-tetrahydro-1H-pyrazolo[4,3-c]pyridin-3-yl)(4-(2-(trifluoromethyl)phenyl)piperidin-1-yl)methanone] |
| 192 to 195 °C | CC(C)C(=O)N1Cc2[nH]nc(C(=O)N3CCC(c4ccccc4C(F)(F)F)CC3)c2C1 [Example 54] |
| 188 to 190 °C | NC(=O)c1ccc(C(=O)N2CCC(c3ccccc3C(F)(F)F)CC2)cc1 [Example 92, 4-(4-(2-(Trifluoromethyl)phenyl)piperidine-1-carbonyl)benzamide] |
| 187 to 189 °C | CCS(=O)(=O)N1CCc2[nH]nc(C(=O)N3CCC(c4ccccc4C(F)(F)F)CC3)c2C1 [Example 37, (5-(Ethylsulfonyl)-4,5,6,7-tetrahydro-1H-pyrazolo[4,3-c]pyridin-3-yl)(4-(2-(trifluoromethyl)phenyl)piperidin-1-yl)methanone] |
| 170 to 172 °C | O=C(c1ccc(Cl)nn1)N1CCC(c2ccccc2C(F)(F)F)CC1 [Example 83, (6-Chloropyridazin-3-yl)(4-(2-(trifluoromethyl)phenyl)piperidin-1-yl)methanone] |

| melting point | SMILES |
| --- | --- |
| 192 to 194 °C | COCC(=O)N1CCc2[nH]nc(C(=O)N3CCC(c4ccccc4C(F)(F)F)CC3)c2C1 [Example 48, 2-Methoxy-1-(3-(4-(2-(trifluoromethyl)phenyl)piperidine-1-carbonyl)-6,7-dihydro-1H-pyrazolo[4,3-c]pyridin-5(4H)-yl)ethanone] |
| 202 to 205 °C | O=C(c1n[nH]c2ncccc12)N1CCC(c2ccccc2C(F)(F)F)CC1 [Example 30, (1H-pyrazolo[3,4-b]pyridin-3-yl)(4-(2-(trifluoromethyl)phenyl)piperidin-1-yl)methanone] |
| 208 to 211 °C | CC(=O)N1CCc2[nH]nc(C(=O)N3CCC(c4ccccc4C(F)(F)F)CC3)c2C1 [Example 27, 1-(3-(4-(2-(Trifluoromethyl)phenyl)piperidine-1-carbonyl)-6,7-dihydro-1H-pyrazolo[4,3-c]pyridin-5(4H)-yl)ethanone] |
| 170 to 173 °C | NS(=O)(=O)Oc1ccccc1CC(=O)N1CCC(c2ccccc2C(F)(F)F)CC1 [Example 102, 2-(2-Oxo-2-(4-(2-(trifluoromethyl)phenyl)piperidin-1-yl)ethyl)phenylsulfamate] |
| 258 to 261 °C | O=C(c1cc2ncc(Cl)cc2[nH]1)N1CCC(c2ccccc2C(F)(F)F)CC1 [Example 77, (6-Chloro-1H-pyrrolo[3,2-b]pyridin-2-yl)(4-(2-(trifluoromethyl)phenyl)piperidin-1-yl)methanone] |
| 144 to 148 °C | Cc1ccc(C(=O)N2CCC(c3ccccc3C(F)(F)F)CC2)nn1 [Example 85, (6-Methylpyridazin-3-yl)(4-(2-(trifluoromethyl)phenyl)piperidin-1-yl)methanone] |
| 147 to 150 °C | Cc1nc2ccc(Cl)nn2c1C(=O)N1CCC(c2ccccc2C(F)(F)F)CC1 [Example 89, (6-Chloro-2-methylimidazol[1,2-b]pyridazin-3-yl)(4-(2-(trifluoromethyl)phenyl)piperidin-1-yl)methanone] |
| 272 to 278 °C | O=C(c1n[nH]c2c1CCNC2)N1CCC(c2ccccc2C(F)(F)F)CC1 (as salt: hydrochloride) [Example 16, (4,5,6,7-Tetrahydro-1H-pyrazolo[3,4-c]pyridin-3-yl)(4-(2-(trifluoromethyl)phenyl)piperidin-1-yl)methanone Hydrochloride] |
| 80 to 84 °C | CC(C)(C)c1ccccc1C1CCN(C(=O)C2CCCS2(=O)=O)CC1 (stereo not drawn) [Example 100, (4-(2-(tert-butyl)phenyl)piperidin-1-yl)(1,1-dioxidotetrahydrothiophen-2-yl)methanone] |
| 162 to 164 °C | CCC(=O)N1CCc2c(C(=O)N3CCC(c4ccccc4C(F)(F)F)CC3)n[nH]c2C1 [Example 49, 1-(3-(4-(2-(Trifluoromethyl)phenyl)piperidine-1-carbonyl)-4,5-dihydro-1H-pyrazolo[3,4-c]pyridin-6(7H)-yl)propan-1-one] |
| > 270 °C | O=C(c1cc2ncc(-n3ccnc3)cc2[nH]1)N1CCC(c2ccccc2C(F)(F)F)CC1 [Example 75, (6-(1H-Imidazol-1-yl)-1H-pyrrolo[3,2-b]pyridin-2-yl)(4-(2-(trifluoromethyl)phenyl)piperidin-1-yl)methanone] |
| 65 to 75 °C | CC(C)(C)c1ccccc1C1CCN(C(=O)[C@H]2C[C@@H](O)CN2)CC1 [Example 98, (4-(2-(Tert-butyl)phenyl)piperidin-1-yl)((2R,4R)-4-hydroxypyrrolidin-2-yl)methanone] |
| 240 to 243 °C | CS(=O)(=O)N1CCc2[nH]nc(C(=O)N3CCC(c4ccccc4C(F)(F)F)CC3)c2C1 [Example 28, (5-(Methylsulfonyl)-4,5,6,7-tetrahydro-1H-pyrazolo[4,3-c]pyridin-3-yl)(4-(2-(trifluoromethyl)phenyl)piperidin-1-yl)methanone] |
| 202 to 209 °C | CC(=O)N1CCc2c(C(=O)N3CCC(c4ccccc4C(F)(F)F)CC3)n[nH]c2C1 [Example 17, 1-(3-(4-(2-(Trifluoromethyl)phenyl)piperidine-1-carbonyl)-4,5-dihydro-1H-pyrazolo[3,4-c]pyridin-6(7H)-yl)ethanone] |
| 50 to 60 °C | CC(=O)N1CCCC1C(=O)N1CCC(c2ccccc2C(C)(C)C)CC1 (stereo not drawn) [Example 97, 1-(2-(4-(2-(Tert-butyl)phenyl)piperidine-1-carbonyl)pyrrolidin-1-yl)ethanone] |
| 268 to 272 °C (dec.) | O=C(c1cc2ncc(N3CCOCC3)cc2[nH]1)N1CCC(c2ccccc2C(F)(F)F)CC1 [Example 76, (6-Morpholino-1H-pyrrolo[3,2-b]pyridin-2-yl)(4-(2-(trifluoromethyl)phenyl)piperidin-1-yl)methanone] |
| 220 to 222 °C | CC(C)S(=O)(=O)N1CCc2c(C(=O)N3CCC(c4ccccc4C(F)(F)F)CC3)n[nH]c2C1 [Example 51, (6-(Isopropylsulfonyl)-4,5,6,7-tetrahydro-1H-pyrazolo[3,4-c]pyridin-3-yl)(4-(2-(trifluoromethyl)phenyl)piperidin-1-yl)methanone] |
| 153 to 155 °C | CCC(=O)N1CCc2[nH]nc(C(=O)N3CCC(c4ccccc4C(F)(F)F)CC3)c2C1 [Example 44, 1-(3-(4-(2-(Trifluoromethyl)phenyl)piperidine-1-carbonyl)-6,7-dihydro-1H-pyrazolo[4,3-c]pyridin-5(4H)-yl)propan-1-one] |
